In US8138196B2, “Antifungal wallboards and building materials and methods for the production thereof” (Syngenta Crop Protection, Inc., priority 2005, dated 2012):

Columns and labels:
Type in all cases: cell-based
[1] = tested on: Aspergillus niger (DSM 63263); assay: Example 4 liquid culture assay on 24 and 48 well plates, 3 way mixtures; settings: A. niger, AZO 0.05 mg ai/l
Source text: (§1) For test 006-2005: Alternaria tenuissima (DSM 63360), Penicillium chrysogenum (DSM 895), Cladosporium cladosporoides (DSM62121), Aspergillus niger (DSM 63263), Aspergillus versicolor (DSM 1943) and Aureobasidium pullulans (ATCC 15233) were separately cultivated on PDA media to […] sporulation. Spore suspensions were produced for each fungus. Spore concentrations of approx. 100,000 spores/ml were used.
For test 015-2006: Alternaria tenuissima (DSM 63360), Penicillium pinophilum (CBS342.61), Gliocladium virens (DSM1963), Aspergillus niger (DSM 63263), Stachybotrys chartarum (DSM 2144) and Aureobasidium pullulans (ATCC 15233) were separately cultivated on PDA media to […] sporulation. Spore suspensions were produced for each fungus. Spore concentrations of approx. 100,000 spores/ml were used.
(§2) Test method used: liquid culture assay on 24 and 48 well plates respectively.
(§3) For testing of the 3 way mixtures each of the formulated fungicide (100 ul) was filled into the 24 and 48 well plates respectively. Afterwards 700 ul of 0.3% AE media was added to the plate. The spore suspension of the specific fungi was added to this media in advance containing approx. 100,000 spores/ml. For testing the solo compounds the equivalent of distilled water was added instead of the formulated fungicide volume of the mixing partners. The plates were then sealed and incubated at 24° C.
(§4) Dependent on the growth properties of each organisms, the evaluation was done after 3 to 6 days, when the surface of the check well was covered with mycelium. The evaluation was performed by assessing the growth of the fungi related to the check growth. The results are expressed as % activity relative to the check (values of 0-100% growth). Afterwards the results were converted in % growth inhibition.
(§5) For the mixtures of different fungicides the synergism was calculated based on the Colby equation, which is described above.

[2] = tested on: Alternaria tenuissima (DSM 63360); assay: as above; settings: A. tenuissima
Source text: as §1
(§6) […] Spore suspensions were produced for each fungus. Spore concentrations of approx. 100,000 spores/ml were used.
as §2, §3, §4, §5

[3] = tested on: Penicillium chrysogenum (DSM 895); assay: Example 3 liquid culture assay on 24 well plates, solo and 2-way mixtures; settings: test 006-2005
Source text: as §1, with “Alternaria” for “For test 006-2005: Alternaria”, “Stachybotrys chartarum (DSM2144),” for “Cladosporium cladosporoides (DSM62121),”, “fungi.” for “fungus.”, “100.000” for “100,000”
(§7) Test method used: liquid culture assay on 24 well plates.
(§8) For solo (i.e. single) ai testing the formulated fungicide (100 ul) was filled into the 24 well plates and 100 ul distilled water was added. Afterwards 800 ul of 0.3% AE media was added to the plate. The spore suspension of the specific fungi was added to this media in advance containing approx. 100,000 spores/ml. The 24 well plates were sealed and incubated at 24° C.
as §4, with “in % O growth inhibition.” for “in % growth inhibition.”
(§9) For synergism testing of the 2-way mixtures 100 ul of each fungicide were filled into 24 well plates and 800 ul of 0.3% AE media containing the spore suspension was added. Different ratios of the 2 fungicide rates were tested at the same time.
(§10) For the mixtures of different fungicides the synergism was calculated based on the Colby equation, which is described below: […]
(§11) The fungicidal action to be expected, We, for a given combination of two fungicides can be calculated as follows (see COLBY, S. R. “Calculating synergistic and antagonistic response of herbicide combinations”. Weeds 15, pages 20-22; 1967): We=X+[Y×(100−X)/100] wherein: • X=% activity in the case of treatment with the compound of formula I at rate x, in comparison with untreated control (=0%). • Y=% activity in the case of treatment with a compound of formula II at rate y, in comparison with untreated control. • We=expected activity (% activity in comparison with untreated control) after treatment with the compound of formula I and a compound of formula II at a rate of x+y kg of active ingredient.
(§12) If the activity actually observed is greater than the expected value We (factor observed activity/expected activity >1.2), there is a synergistic effect.

[4] = tested on: Aspergillus niger (DSM 63263); assay: as above; settings: test 006-2005; rate (AZO) 0.05 mg ai/l
Source text: as §1, with “Alternaria” for “For test 006-2005: Alternaria”, “Stachybotrys chartarum (DSM2144),” for “Cladosporium cladosporoides (DSM62121),”, “fungi.” for “fungus.”, “100.000” for “100,000”
as §7, §8
as §4, with “in % O growth inhibition.” for “in % growth inhibition.”
as §9, §10, §11, §12

[5] = tested on: Alternaria tenuissima (DSM 63360); assay: as above
Source text: as §1, with “Alternaria” for “For test 006-2005: Alternaria”, “Stachybotrys chartarum (DSM2144),” for “Cladosporium cladosporoides (DSM62121),”, “fungi.” for “fungus.”, “100.000” for “100,000”
as §7, §8
as §4, with “in % O growth inhibition.” for “in % growth inhibition.”
as §9, §10, §11, §12

[6] = tested on: Stachybotrys chartarum (DSM2144); assay: as above; settings: test 006-2005; rate (AZO) 0.8 mg ai/l
Source text: as §1, with “Alternaria” for “For test 006-2005: Alternaria”, “Stachybotrys chartarum (DSM2144),” for “Cladosporium cladosporoides (DSM62121),”, “fungi.” for “fungus.”, “100.000” for “100,000”
as §7, §8
as §4, with “in % O growth inhibition.” for “in % growth inhibition.”
as §9, §10, §11, §12

[7] = tested on: Aspergillus versicolor (DSM 1943); assay: as above; settings: test 006-2005
Source text: as §1, with “Alternaria” for “For test 006-2005: Alternaria”, “Stachybotrys chartarum (DSM2144),” for “Cladosporium cladosporoides (DSM62121),”, “fungi.” for “fungus.”, “100.000” for “100,000”
as §7, §8
as §4, with “in % O growth inhibition.” for “in % growth inhibition.”
as §9, §10, §11, §12

[8] = tested on: Aureobasidium pullulans (ATCC 15233); assay: as above
Source text: as §1, with “Alternaria” for “For test 006-2005: Alternaria”, “Stachybotrys chartarum (DSM2144),” for “Cladosporium cladosporoides (DSM62121),”, “fungi.” for “fungus.”, “100.000” for “100,000”
as §7, §8
as §4, with “in % O growth inhibition.” for “in % growth inhibition.”
as §9, §10, §11, §12

[9] = tested on: Stachybotrys chartarum (DSM 2144); assay: Example 4 liquid culture assay on 24 and 48 well plates, 3 way mixtures; settings: test 015-2005, S. chartarum
Protocol: as §6, §2, §3, §4, §5

[10] = test 006-2005, rate (AZO) 0.05 mg ai/l
[11] = test 006-2005, rate (AZO) 0.2 mg ai/l
[12] = test 006-2005, rate (AZO) 0.8 mg ai/l

For CO/C=C(/C(=O)OC)c1ccccc1Oc1cc(Oc2ccccc2C#N)ncn1 [Azoxystrobin], the “inh % (AZO alone)” value ([1]; test 006-2005) was 10%, the “inh % (AZO alone)” value ([1]; test 015-2005) was 0% and the “inh % (AZO alone)” value ([2]; test 006-2005, AZO 0.05 mg ai/l) was 10%. The “inh % (AZO alone)” value ([2]; test 006-2005, AZO 0.2 mg ai/l) was 10%, the “inh % (AZO alone)” value ([2]; test 006-2005, AZO 0.8 mg ai/l) was 10% and the “inh % (AZO alone)” value ([2]; test 006-2005, AZO 1.6 mg ai/l) was 10%. The “inh % (AZO alone)” value ([2]; test 006-2005, AZO 3.12 mg ai/l) was 10%, the “inh % (AZO alone)” value ([2]; test 006-2005, AZO 12.5 mg ai/l) was 10% and the “inh % (AZO alone)” value ([2]; test 006-2005, AZO 50 mg ai/l) was 10%. For the same molecule, the “inh % (AZO alone)” value ([2]; test 006-2005, AZO 100 mg ai/l) was 10%, the “inh % (AZO alone)” value ([2]; test 015-2005, AZO 0.05 mg ai/l) was 10% and the “inh % (AZO alone)” value ([2]; test 015-2005, AZO 0.2 mg ai/l) was 10%. For the same molecule, the “inh % (AZO alone)” value ([3]; rate (AZO) 0.05 mg ai/l) was 10%, the “inh % (AZO alone)” value ([3]; rate (AZO) 0.2 mg ai/l) was 0% and the “inh % (AZO alone)” value ([3]; rate (AZO) 0.8 mg ai/l) was 10%. The “inh % (AZO alone)” value ([3]; rate (AZO) 1.6 mg ai/l) was 10%, the “inh % (AZO alone)” value ([3]; rate (AZO) 3.12 mg ai/l) was 10% and the “inh % (AZO alone)” value ([3]; rate (AZO) 12.5 mg ai/l) was 10%. For the same molecule, the “inh % (AZO alone)” value ([3]; rate (AZO) 50 mg ai/l) was 10%, the “inh % (AZO alone)” value ([3]; rate (AZO) 100 mg ai/l) was 10% and the “inh % (AZO alone)” value [4] was 10%. For the same molecule, the “inh % (AZO alone)” value [5, 10] was 10%, the “inh % (AZO alone)” value [5, 11] was 10% and the “inh % (AZO alone)” value [5, 12] was 10%. The “inh % (AZO alone)” value ([5]; test 006-2005, rate (AZO) 100 mg ai/l) was 30%, the “inh % (AZO alone)” value ([5]; test 015-2005, rate (AZO) 0.4 mg ai/l) was 10% and the “inh % (AZO alone)” value ([5]; test 015-2005, rate (AZO) 0.8 mg ai/l) was 10%. For the same molecule, the “inh % (AZO alone)” value ([5]; test 015-2005, rate (AZO) 1.6 mg ai/l) was 10%, the “inh % (AZO alone)” value ([5]; test 015-2005, rate (AZO) 3.1 mg ai/l) was 10% and the “inh % (AZO alone)” value ([5]; test 015-2005, rate (AZO) 6.25 mg ai/l) was 10%. For the same molecule, the “inh % (AZO alone)” value [6] was 10%, the “inh % (AZO alone)” value ([7]; rate (AZO) 0.8 mg ai/l) was 30% and the “inh % (AZO alone)” value ([7]; rate (AZO) 1.6 mg ai/l) was 30%. For the same molecule, the “inh % (AZO alone)” value [8, 10] was 0%, the “inh % (AZO alone)” value [8, 11] was 10% and the “inh % (AZO alone)” value [8, 12] was 10%. The “inh % (AZO alone)” value ([8]; test 006-2005, rate (AZO) 1.6 mg ai/l) was 10%, the “inh % (AZO alone)” value ([8]; test 006-2005, rate (AZO) 3.12 mg ai/l) was 10% and the “inh % (AZO alone)” value ([8]; test 006-2005, rate (AZO) 12.5 mg ai/l) was 10%. For the same molecule, the “inh % (AZO alone)” value ([8]; test 015-2005, rate (AZO) 12.5 mg ai/l) was 0%, the “inh % (AZO alone)” value ([8]; test 015-2005, rate (AZO) 25 mg ai/l) was 0% and the “inh % (AZO alone)” value ([8]; test 015-2005, rate (AZO) 50 mg ai/l) was 0%. For the same molecule, the “inh % (AZO alone)” value ([8]; test 015-2005, rate (AZO) 100 mg ai/l) was 0%, the “inh % (AZO alone)” value ([9]; AZO 0.8 mg ai/l) was 10% and the “inh % (AZO alone)” value ([9]; AZO 1.6 mg ai/l) was 10%. The “inh % (AZO alone)” value ([9]; AZO 3.1 mg ai/l) was 30%.
